{"source": "patent US8563267B2", "about": "“Lycogen extract, composition thereof and method for the treatment using the same” (Asia-Pacific Beiotech Developing, Inc., priority 2010, dated 2013)", "key": {"human lymphocytes": {"test_system": "human lymphocytes", "details": "protection of human lymphocytes from free radical NO2; cited from earlier work"}, "type I procollagen": {"test_system": "type I procollagen", "assay": "Type I procollagen level in Hs68 human fibroblasts (Western blotting)", "assay_type": "cell-based", "details": "Hs68, without UV treatment, 24 hr; lycopene 0.1, 0.5, 10 μM; lycogen extract 1, 5, 10 μM", "protocol": "The Hs68 human fibroblasts were treated with 20 J/cm^2 of UVA and then with 10, 25 and 50 μM of lycogen extract for 24 hr. The type I procollagen level was analyzed by using Western blotting analysis.\nIn addition, under condition without UV treatment, the Hs68 human fibroblasts were treated with 0.1, 0.5 and 10 μM lycopene (extracted from tomato) or 1, 5, 10 μM lycogen extract (extracted from photosynthetic bacteria of the present invention) for 24 hr. The type I procollagen level was analyzed by using Western blotting."}, "[1]": {"details": "test tube studies; cited from earlier work"}}}
{"smiles": "CC(C)=CCC/C(C)=C/C=C/C(C)=C/C=C/C(C)=C/C=C/C=C(C)/C=C/C=C(C)/C=C/C=C(\\C)CCC=C(C)C", "note": "[lycopene]", "values": [{"measurement": "NO2 resistant effect relative to β-carotene", "setting": "human lymphocytes", "value": "at least two times"}, {"measurement": "promotion of collagen proliferation (type I procollagen level)", "setting": "type I procollagen", "value": "unable to promote collagen proliferation"}, {"measurement": "efficiency of singlet-oxygen quenching action relative to vitamin E", "setting": "[1]", "value": 100, "unit": "times"}]}
